Measurements: ChEMBL document CHEMBL1150134, “Triterpenoid constituents isolated from the bark of Abies sachalinensis” (J Nat Prod, 2002)
The source made the active and inactive calls. No cut-off for these calls is given here.

Experiments:
[1] = species on record: Homo sapiens; assay: Inhibition of human DNA topoisomerase 1 at 200 uM
[2] = target: T1, DNA topoisomerase 2-alpha (Homo sapiens, UniProt P11388); assay: Inhibition of human DNA topoisomerase 2alpha at 200 uM
[3] = target: T1, DNA topoisomerase 2-alpha; assay: Inhibition of human DNA topoisomerase 2alpha

T1 sequence (P11388 whole entry): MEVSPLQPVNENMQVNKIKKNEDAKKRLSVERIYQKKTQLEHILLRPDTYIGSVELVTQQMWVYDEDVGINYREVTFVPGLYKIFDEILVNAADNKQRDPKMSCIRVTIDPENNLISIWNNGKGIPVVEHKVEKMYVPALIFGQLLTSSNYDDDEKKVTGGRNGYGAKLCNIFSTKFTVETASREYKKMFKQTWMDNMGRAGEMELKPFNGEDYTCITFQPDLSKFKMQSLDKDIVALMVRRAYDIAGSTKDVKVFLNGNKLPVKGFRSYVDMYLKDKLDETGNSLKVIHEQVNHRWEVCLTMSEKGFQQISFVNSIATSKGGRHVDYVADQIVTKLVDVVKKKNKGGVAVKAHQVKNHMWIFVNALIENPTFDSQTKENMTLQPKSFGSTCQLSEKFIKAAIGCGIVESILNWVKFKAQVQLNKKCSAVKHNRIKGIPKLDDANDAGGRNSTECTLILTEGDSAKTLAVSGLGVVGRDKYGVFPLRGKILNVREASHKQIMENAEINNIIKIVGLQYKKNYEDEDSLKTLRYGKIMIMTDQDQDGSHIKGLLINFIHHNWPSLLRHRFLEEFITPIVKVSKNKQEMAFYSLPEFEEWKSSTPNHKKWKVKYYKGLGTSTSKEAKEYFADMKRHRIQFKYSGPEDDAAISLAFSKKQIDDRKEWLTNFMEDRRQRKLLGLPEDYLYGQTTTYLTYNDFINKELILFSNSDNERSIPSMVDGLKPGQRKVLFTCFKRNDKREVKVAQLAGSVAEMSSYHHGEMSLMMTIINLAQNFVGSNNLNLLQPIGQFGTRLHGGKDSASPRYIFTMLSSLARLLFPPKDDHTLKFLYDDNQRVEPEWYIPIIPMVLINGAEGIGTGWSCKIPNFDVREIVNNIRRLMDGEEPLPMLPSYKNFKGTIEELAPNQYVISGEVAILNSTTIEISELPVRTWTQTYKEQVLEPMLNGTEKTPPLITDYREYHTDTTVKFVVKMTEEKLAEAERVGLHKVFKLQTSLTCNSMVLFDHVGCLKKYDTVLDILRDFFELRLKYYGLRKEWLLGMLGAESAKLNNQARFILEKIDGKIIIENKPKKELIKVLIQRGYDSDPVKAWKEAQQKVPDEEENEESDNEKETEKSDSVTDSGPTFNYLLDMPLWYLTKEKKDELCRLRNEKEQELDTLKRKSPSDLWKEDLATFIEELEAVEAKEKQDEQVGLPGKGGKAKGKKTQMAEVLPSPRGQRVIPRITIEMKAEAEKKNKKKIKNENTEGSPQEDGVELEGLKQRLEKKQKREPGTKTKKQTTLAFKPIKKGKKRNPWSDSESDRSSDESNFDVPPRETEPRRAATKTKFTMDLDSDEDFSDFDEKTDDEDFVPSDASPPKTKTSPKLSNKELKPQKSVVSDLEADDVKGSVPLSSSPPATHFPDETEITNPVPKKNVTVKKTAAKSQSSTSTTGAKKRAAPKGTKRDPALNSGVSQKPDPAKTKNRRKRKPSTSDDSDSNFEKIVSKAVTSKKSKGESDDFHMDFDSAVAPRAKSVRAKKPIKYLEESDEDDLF

Question: With `C=C(C)[C@@H]1CC=C2[C@@H](CC[C@]3(C)[C@@H]([C@H](C)CC(=O)C[C@@H](C)C(=O)O)CC[C@@]23C)[C@@]1(C)CCC(=O)O` as the compound, how does the Activity [1] read?
Answer: inactive

Question: And the inhibition [2]?
Answer: 4%

Question: Which results are given for `C=C(C)[C@@H]1CC=C2[C@@H](CC[C@]3(C)[C@@H]([C@H](C)C[C@@H]4C[C@@H](C)C(=O)O4)CC[C@@]23C)[C@@]1(C)CCC(=O)OC`?
Answer: Activity [3]: Dose-dependent effect; IC50 [3]: 75.7 µM; Activity [1]: inactive; Activity [2]: Active

Question: With `C=C(C)[C@@H]1CC=C2[C@@H](CC[C@]3(C)[C@@H]([C@H](C)C[C@@H]4C[C@@H](C)C(=O)O4)CC[C@@]23C)[C@@]1(C)CCC(=O)O` as the compound, how does the Activity [3] read?
Answer: Dose-dependent effect

Question: What about the IC50 [3] of the same compound?
Answer: 42.6 µM

Question: And the Activity [1]?
Answer: inactive

Question: What about the Activity [2] of the same compound?
Answer: Active

Question: How did the Activity [3] turn out when `C=C(C)[C@@H]1CC=C2[C@@H](CC[C@]3(C)[C@@H]([C@H](C)CC(=O)C[C@@H](C)C(=O)OC)CC[C@@]23C)[C@@]1(C)CCC(=O)OC` was run?
Answer: Dose-dependent effect

Question: And the IC50 [3]?
Answer: 67.3 µM

Question: And the Activity [1]?
Answer: inactive

Question: What about the Activity [2] of the same compound?
Answer: Active

Question: Which results are given for `C=C(C)[C@@H]1CC=C2[C@@H](CC[C@]3(C)[C@@H]([C@H](C)C[C@H](O)C[C@@H](C)CO)CC[C@@]23C)[C@@]1(C)CCCO`?
Answer: Activity [3]: Dose-dependent effect; IC50 [3]: 50.4 µM; Activity [1]: inactive; Activity [2]: Active
